US20090124607A1, “Novel Bicyclic Sulfonamides for Use as Glucocorticoid Receptor Modulators in the Treatment of Inflammatory Diseases” (priority 2005, published 2009)
pIC50: −log10 of the molar value.

Target: T1, recombinant human GR (Homo sapiens, UniProt P04150)
T1 construct: purchased Panvera/Invitrogen P2812 (kit P2893)
T1 sequence (P04150 1-777): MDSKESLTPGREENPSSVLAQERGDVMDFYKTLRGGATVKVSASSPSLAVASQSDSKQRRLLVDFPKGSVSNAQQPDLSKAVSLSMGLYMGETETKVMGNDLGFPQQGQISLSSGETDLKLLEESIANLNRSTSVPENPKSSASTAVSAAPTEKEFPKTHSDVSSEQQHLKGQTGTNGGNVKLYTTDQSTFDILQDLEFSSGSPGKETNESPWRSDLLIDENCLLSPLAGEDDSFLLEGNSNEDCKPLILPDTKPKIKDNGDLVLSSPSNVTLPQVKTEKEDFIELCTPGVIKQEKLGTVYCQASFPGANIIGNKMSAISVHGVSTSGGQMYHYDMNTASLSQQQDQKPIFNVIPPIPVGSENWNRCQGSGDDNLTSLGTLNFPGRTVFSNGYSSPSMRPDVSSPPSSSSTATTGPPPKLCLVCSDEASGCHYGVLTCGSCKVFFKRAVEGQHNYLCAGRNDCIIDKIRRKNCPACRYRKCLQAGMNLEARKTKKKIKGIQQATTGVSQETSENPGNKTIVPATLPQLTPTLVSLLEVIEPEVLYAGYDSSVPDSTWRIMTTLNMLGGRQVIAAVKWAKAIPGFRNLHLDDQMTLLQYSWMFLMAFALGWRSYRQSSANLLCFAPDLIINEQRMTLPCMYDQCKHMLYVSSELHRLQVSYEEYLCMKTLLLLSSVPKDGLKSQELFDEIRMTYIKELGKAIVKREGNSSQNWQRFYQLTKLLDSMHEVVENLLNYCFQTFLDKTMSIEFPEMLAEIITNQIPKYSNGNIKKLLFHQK
Assay: Human Glucocorticoid Receptor (GR) Assay, fluorescence polarization (GRhuFL_FP_v2, GR-binders)
Type: binding
Procedure: Human Glucocorticoid Receptor (GR) Assay
The assay is based on a commercial kit from Panvera/Invitrogen (Part number P2893). The assay technology is fluorescence polarization. […] The GR and Stabilizing Peptide reagents are stored at −70° C. while the GS Red is stored at −20° C. Also included in the kit are 1M DTT (Panvera, Part number P2325, stored at −20° C.) and GR Screening buffer 10× (Panvera, Part number P2814, stored at −70° C. initially but once thawed stored at room temperature). Avoid repeated freeze/thaws for all reagents. The GR Screening buffer 10× comprises 100 mM potassium phosphate, 200 mM sodium molybdate, 1 mM EDTA and 20% DMSO.
0% control was 100% DMSO and 100% control was 10 μM Dexamethasone. Background solution (8 μL; assay buffer 10×, Stabilizing Peptide, DTT and ice cold MQ water) was added to the background wells. GS Red solution (7 μL; assay buffer 10×, Stabilizing Peptide, DTT, GS Red and ice cold water) was added to all wells except background wells. GR solution (7 μL; assay buffer 10×, Stabilizing Peptide, DTT, GR and ice cold water) was added to all wells. The plate was sealed and incubated in a dark at room temperature for 2 hours.

Structure (SMILES)	pIC50
Cc1ccc(-n2ncc3c(NC[C@H](C)NS(=O)(=O)c4c(C)cc(C)cc4C)cccc32)cc1 [Example 12, 2,4,6-Trimethyl-N-((1S)-1-methyl-2-{[1-(4-methylphenyl)-1H-indazol-4-yl]amino}ethyl)benzenesulfonamide]	8.41
Cc1cc(C)c(S(=O)(=O)N[C@@H](C)CCc2cccc3c2cnn3-c2ccc(F)cc2)c(C)c1 [Example 39, N-{(1S)-3-[1-(4-Fluorophenyl)-1H-indazol-4-yl]-1-methylpropyl}-2,4,6-trimethylbenzenesulfonamide]	8.34
Cc1cc(C)c(S(=O)(=O)N[C@@H](C)CNc2cccc3c2cnn3-c2ccccc2)c(C)c1 [Example 7, 2,4,6-Trimethyl-N-{(1S)-1-methyl-2-[(1-phenyl-1H-indazol-4-yl)amino]ethyl}benzenesulfonamide]	8.46
Cc1nn(C2CCCC2)c(C)c1S(=O)(=O)N[C@@H](C)COc1cccc2c1cnn2-c1cccnc1 [Example 49, 1-Cyclopentyl-3,5-dimethyl-N-{(1S)-1-methyl-2-[(1-pyridin-3-yl-1H-indazol-4-yl)oxy]ethyl}-1H-pyrazole-4-sulfonamide]	7.27
Cc1nn(C2CCCC2)c(C)c1S(=O)(=O)N[C@@H](C)CNc1cccc2c1cnn2-c1ccc(F)cc1 [Example 25]	8.42
Cc1cc(C)c(S(=O)(=O)N[C@@H](C)CNc2cccc3c2cnn3-c2cccc(OC(F)(F)F)c2)c(C)c1 [Example 6, 2,4,6-Trimethyl-N-[(1S)-1-methyl-2-({1-[3-(trifluoromethoxy)phenyl]-1H-indazol-4-yl}amino)ethyl]benzenesulfonamide]	7.82
COc1ccc(-n2ncc3c(NC[C@H](C)NS(=O)(=O)c4c(C)cc(C)cc4C)cccc32)cc1F [Example 21, N-((1S)-2-{[1-(3-Fluoro-4-methoxy-phenyl)-1H-indazol-4-yl]amino}-1-methylethyl)-2,4,6-trimethylbenzenesulfonamide]	8.57
COc1ccc(-n2ncc3c(NC[C@H](C)NS(=O)(=O)c4c(C)cc(C)cc4C)cccc32)cc1 [Example 5, N-((1S)-2-{[1-(4-Methoxyphenyl)-1H-indazol-4-yl]amino}-1-methylethyl)-2,4,6-trimethylbenzenesulfonamide]	8.27
Cc1cc(C)c(S(=O)(=O)N[C@@H](C)CNc2cccc3c2cnn3-c2cncnc2)c(C)c1 [Example 15, 2,4,6-Trimethyl-N-{(1S)-1-methyl-2-[(1-pyrimidin-5-yl-1H-indazol-4-yl)amino]ethyl}benzenesulfonamide]	8.27
Cc1cc(C)c(S(=O)(=O)NC(C)CCc2cccc3c2cnn3-c2ccc(F)cc2)c(C)c1 (stereo not shown) [Example 38, N-{3-[1-(4-Fluorophenyl)-1H-indazol-4-yl]-1-methylpropyl}-2,4,6-trimethylbenzenesulfonamide]	7.35
Cc1cc(C)c(S(=O)(=O)N[C@@H](C)CNc2c(F)ccc3c2cnn3-c2ccc(F)cc2)c(C)c1 [Example 32, N-((1S)-2-{[5-Fluoro-1-(4-fluorophenyl)-1H-indazol-4-yl]amino}-1-methylethyl)-2,4,6-trimethylbenzenesulfonamide]	8.38
Cc1n[nH]c(C)c1S(=O)(=O)N[C@@H](C)COc1cccc2c1cnn2-c1cccnc1 [Example 42, 3,5-Dimethyl-N-{(1S)-1-methyl-2-[(1-pyridin-3-yl-1H-indazol-4-yl)oxy]ethyl}-1H-pyrazole-4-sulfonamide]	5.40

The remaining molecules from weak to strong by pIC50, led by results:

pIC50	Structure (SMILES)
6.10	Cc1cc(C)c(S(=O)(=O)NC(C)CS(=O)(=O)c2cccc3c2cnn3-c2ccc(F)cc2)c(C)c1 (stereo not shown) [Example 37, N-[2-[1-(4-Fluorophenyl)indazol-4-yl]sulfonyl-1-methyl-ethyl]-2,4,6-trimethyl-benzenesulfonamide]
7.10	Cc1nn(C(C)(C)C)c(C)c1S(=O)(=O)N[C@@H](C)COc1cccc2c1cnn2-c1cccnc1 [Example 44, 1-tert-Butyl-3,5-dimethyl-N-{(1S)-1-methyl-2-[(1-pyridin-3-yl-1H-indazol-4-yl)oxy]ethyl}-1H-pyrazole-4-sulfonamide]
7.29	Cc1nn(C2CCCC2)c(C)c1S(=O)(=O)N[C@@H](C)COc1cccc2c1cnn2-c1ccc(F)cc1 [Example 48, 1-Cyclopentyl-N-((1S)-2-{[1-(4-fluorophenyl)-1H-indazol-4-yl]oxy}-1-methylethyl)-3,5-dimethyl-1H-pyrazole-4-sulfonamide]
7.62	Cc1cc(C)c(S(=O)(=O)NCC(C)(C)Nc2cccc3c2cnn3-c2ccc(F)cc2)c(C)c1 [Example 55, N-[2-[[1-(4-Fluorophenyl)indazol-4-yl]amino]-2-methylpropyl]-2,4,6-trimethyl-benzenesulfonamide]
7.64	COc1ncc(-n2ncc3c(NC[C@H](C)NS(=O)(=O)c4c(C)nn(C5CCCC5)c4C)cccc32)cn1 [Example 28, 1-Cyclopentyl-N-((1S)-2-{[1-(2-methoxypyrimidin-5-yl)-1H-indazol-4-yl]amino}-1-methylethyl)-3,5-dimethyl-1H-pyrazole-4-sulfonamide]
7.70	Cc1ccc(-n2ncc3c(NC[C@H](C)NS(=O)(=O)c4ccccc4)cccc32)cc1 [Example 51]
7.74	CCC(CC)n1nc(C)c(S(=O)(=O)N[C@@H](C)COc2cccc3c2cnn3-c2ccc(F)cc2)c1C [Example 46, 1-(1-Ethylpropyl)-N-((1S)-2-{[1-(4-fluorophenyl)-1H-indazol-4-yl]oxy}-1-methylethyl)-3,5-dimethyl-1H-pyrazole-4-sulfonamide]
7.77	Cc1cc(C)c(S(=O)(=O)N[C@@H](C)CCc2cccc3c2cnn3-c2cncnc2)c(C)c1 [Example 54, 2,4,6-Trimethyl-N-[(1S)-1-methyl-3-(1-pyrimidin-5-yl-1H-indazol-4-yl)propyl]benzenesulfonamide]
7.89	Cc1nn(C(C)(C)C)c(C)c1S(=O)(=O)N[C@@H](C)COc1cccc2c1cnn2-c1ccc(F)cc1 [Example 43, 1-tert-Butyl-N-((1S)-2-[{1-(4-fluorophenyl)-1H-indazol-4-yl]oxy}-1-methylethyl)-3,5-dimethyl-1H-pyrazole-4-sulfonamide]
8.12	Cc1cc(C)c(S(=O)(=O)NC(C)CSc2cccc3c2cnn3-c2ccc(F)cc2)c(C)c1 (stereo not shown) [Example 36, N-[2-[1-(4-Fluorophenyl)indazol-4-yl]sulfanyl-1-methylethyl]-2,4,6-trimethyl-benzenesulfonamide]
8.15	Cc1cc(C)c(S(=O)(=O)N[C@@H](C)CNc2cccc3c2cnn3C2CCCC2)c(C)c1 [Example 50, N-{(1S)-2-[(1-Cyclopentyl-1H-indazol-4-yl)amino]-1-methylethyl}-2,4,6-trimethylbenzene sulfonamide]
8.36	COCc1cccc(-n2ncc3c(NC[C@H](C)NS(=O)(=O)c4c(C)cc(C)cc4C)cccc32)c1 [Example 20, N-[(1S)-2-({1-[3-(Methoxymethyl)phenyl]-1H-indazol-4-yl}amino)-1-methylethyl]-2,4,6-trimethylbenzenesulfonamide]
8.40	Cc1cc(C)c(S(=O)(=O)N[C@@H](C)CNc2cccc3c2cnn3-c2ccc(F)c(C)c2)c(C)c1 [Example 17, N-((1S)-2-{[1-(4-Fluoro-3-methylphenyl)-1H-indazol-4-yl]amino}-1-methylethyl)-2,4,6-trimethylbenzenesulfonamide]
8.40	Cc1cc(C)c(S(=O)(=O)N[C@@H](C)CNc2cccc3c2cnn3-c2cccc(F)c2)c(C)c1 [Example 13, N-((1S)-2-{[1-(3-Fluorophenyl)-1H-indazol-4-yl]amino}-1-methylethyl)-2,4,6-trimethylbenzenesulfonamide]
8.46	Cc1cc(C)c(S(=O)(=O)N[C@@H](C)CNc2cccc3c2cnn3-c2ccc(Cl)cc2)c(C)c1 [Example 22, N-((1S)-2-{[1-(4-Chlorophenyl)-1H-indazol-4-yl]amino}-1-methylethyl)-2,4,6-trimethylbenzenesulfonamide]
8.64	Cc1cc(C)c(S(=O)(=O)N[C@@H](C)CNc2cccc3c2cnn3-c2ccc(F)nc2)c(C)c1 [Example 3, N-((1S)-2-{[1-(6-Fluoropyridin-3-yl)-1H-indazol-4-yl]amino}-1-methylethyl)-2,4,6-trimethylbenzenesulfonamide]
